Laboratory results: US12692254B2, “Benzimidazole inhibitors of PAD enzymes” (BRISTOL-MYERS SQUIBB COMPANY, priority 2018, dated 2026)

target: human PAD4 (hPAD4) (Homo sapiens, UniProt Q9UM07); test: RFMS human PAD4 functional assay (rapid-fire mass spectrum); assay type: biochemical; details: 5 nM hPAD4 enzyme, 250 μM BAEE, 50 μM Calcium; 30 min preincubation, 90 min reaction at 37° C.
Outline: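 PAD4 (10 nM) preincubated 30 min with compound (top final 50 μM), then BAEE substrate added in pH 7.5 HEPES buffer with DTT, 50 μM calcium, TPEN; 90 min at 37° C. After TCA quench, citrulline derivatized with phenyl glyoxal (4 mM final, 30 min, 37° C) and quantified by RapidFire MS against internal standard.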

Sequence of human PAD4 (hPAD4) (Q9UM07 whole entry): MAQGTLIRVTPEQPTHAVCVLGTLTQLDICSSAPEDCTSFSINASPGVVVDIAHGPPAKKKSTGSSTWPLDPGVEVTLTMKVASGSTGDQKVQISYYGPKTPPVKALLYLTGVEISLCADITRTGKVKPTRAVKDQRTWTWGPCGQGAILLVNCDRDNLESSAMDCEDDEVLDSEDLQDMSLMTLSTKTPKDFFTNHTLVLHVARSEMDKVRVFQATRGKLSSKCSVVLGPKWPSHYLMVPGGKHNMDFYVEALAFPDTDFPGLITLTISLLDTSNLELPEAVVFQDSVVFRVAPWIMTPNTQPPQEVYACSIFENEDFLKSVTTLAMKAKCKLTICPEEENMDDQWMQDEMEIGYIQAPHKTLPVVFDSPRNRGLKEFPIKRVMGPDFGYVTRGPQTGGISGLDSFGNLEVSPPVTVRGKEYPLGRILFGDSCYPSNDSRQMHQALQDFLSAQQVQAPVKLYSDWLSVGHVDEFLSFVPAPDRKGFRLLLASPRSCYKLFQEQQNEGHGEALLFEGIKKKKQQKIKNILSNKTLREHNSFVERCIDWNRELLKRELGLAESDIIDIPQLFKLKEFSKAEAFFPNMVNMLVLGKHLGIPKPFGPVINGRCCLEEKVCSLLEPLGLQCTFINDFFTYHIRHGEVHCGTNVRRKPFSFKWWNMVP

IC50	SMILES
1210 nM	COc1cc(C(=O)N2CC3CCC2[C@@H]3N)cc2nc(-c3cc4cccnc4n3CC3CC3)n([C@H]3C[C@H](NC(C)=O)C3)c12 (stereo partly drawn) [Example 302, N-[(1r,3r)-3-{5-[(1R,4R,7R)-7-amino-2-azabicyclo[2.2.1]heptane-2-carbonyl]-2-[1-(cyclopropylmethyl)-1H-pyrrolo[2,3-b]pyridin-2-yl]-7-methoxy-1H-1,3-benzodiazol-1-yl)cyclobutyl]acetamide]
2880 nM	COc1cc(C(=O)N2CC3CCC2[C@@H]3N)cc2nc(-c3cc4cccnc4n3CC3CC3)n([C@H]3C[C@@H](NC(C)=O)C3)c12 (stereo partly drawn) [Example 304, N-[(1s,3s)-3-{5-[(1R,4R,7R)-7-ammo-2-azabicyclo[2.2.1]heptane-2-carbonyl]-2-[1-(cyclopropylmethyl)-1H-pyrrolo[2,3-b]pyridin-2-yl]-7-methoxy-1H-1,3-benzodiazol-1-yl}cyclobutyl]acetamide]
303 nM	COc1cc(C(=O)N2C[C@H]3CC[C@@H]2[C@@H]3N)cc2nc(-c3cc4cccnc4n3CC3CC3)n(CC3CCNCC3)c12 [Example 305, (1R,4R,7R)-2-{2-[1-(cyclopropylmethyl)-1H-pyrrolo[2,3-b]pyridin-2-yl]-7-methoxy-1-[(piperidin-4-yl)methyl]-1H-1,3-benzodiazole-5-carbonyl)-2-azabicyclo[2.2.1]heptan-7-amine]
243 nM	COc1cc(C(=O)N2C[C@H]3CC[C@@H]2[C@@H]3N)cc2nc(-c3cc4cccnc4n3CC3CC3)n(CC3CNC3)c12 [Example 306, (1R,4R,7R)-2-{1-[(azetidin-3-yl)methyl]-2-[1-(cyclopropylmethyl)-1H-pyrrolo[2,3-b]pyridin-2-yl]-7-methoxy-1H-1,3-benzodiazole-5-carbonyl}-2-azabicyclo[2.2.1]heptan-7-amine]
297 nM	COc1cc(C(=O)N2C[C@H]3CC[C@@H]2[C@@H]3N)cc2nc(-c3cc4cccnc4n3CC3CC3)n(C3CNC3)c12 [Example 307, (1R,4R,7R)-2-[1-(azetidin-3-yl)-2-[1-(cyclopropylmethyl)-1H-pyrrolo[2,3-b]pyridin-2-yl]-7-methoxy-1H-1,3-benzodiazole-5-carbonyl]-2-azabicyclo[2.2.1]heptan-7-amine]
538 nM	COc1cc(C(=O)N2C[C@H]3CC[C@@H]2[C@@H]3N)cc2nc(-c3cc4ccccc4n3C)n(CC3CNC3)c12 [Example 308, (1R,4R,7R)-2-{1-[(azetidin-3-yl)methyl]-7-methoxy-2-(1-methyl-1H-indol-2-yl)-1H-1,3-benzodiazole-5-carbonyl}-2-azabicyclo[2.2.1]heptan-7-amine]
1160 nM	COc1cc(C(=O)N2C[C@H]3CC[C@@H]2[C@@H]3N)cc2nc(-c3cc4cccnc4n3CC3CC3)n(C3CCNCC3)c12 [Example 309, (1R,4R,7R)-2-{2-[1-(cyclopropylmethyl)-1H-pyrrolo[2,3-b]pyridin-2-yl]-7-methoxy-1-(piperidin-4-yl)-1H-1,3-benzodiazole-5-carbonyl}-2-azabicyclo[2.2.1]heptan-7-amine]
134 nM	COc1cc(C(=O)N2C[C@H]3CC[C@@H]2[C@@H]3N)cc2nc(-c3cccn3CC3CC3)n(CC3CN(c4ccnc(C#N)n4)C3)c12 [Example 311, 4-[3-({5-[(1R,4R,7R)-7-amino-2-azabicyclo[2.2.1]heptane-2-carbonyl]-2-[1-(cyclopropylmethyl)-1H-pyrrol-2-yl]-7-methoxy-1H-1,3-benzodiazol-1-yl}methyl)azetidin-1-yl]pyrimidine-2-carbonitrile]
380 nM	CCc1ccccc1-c1nc2cc(C(=O)N3C[C@H]4CC[C@@H]3[C@@H]4N)cc(OC)c2n1CC1CN(c2cncc(C#N)c2)C1 [Example 312, 5-[3-({5-[(1R,4R,7R)-7-amino-2-azabicyclo[2.2.1]heptane-2-carbonyl]-2-(2-ethylphenyl)-7-methoxy-1H-1,3-benzodiazol-1-yl}methyl)azetidin-1-yl]pyridine-3-carbonitrile]
552 nM	COc1cc(C(=O)N2C[C@H]3CC[C@@H]2[C@@H]3N)cc2nc(-c3cccn3CC3CC3)n(CC3CN(c4ccnc(C)n4)C3)c12 [Example 314, (1R,4R,7R)-2-{2-[1-(cyclopropylmethyl)-1H-pyrrol-2-yl]-7-methoxy-1-{[1-(2-methylpyrimidin-4-yl)azetidin-3-yl]methyl}-1H-1,3-benzodiazole-5-carbonyl}-2-azabicyclo[2.2.1]heptan-7-amine]
1300 nM	COc1cc(C(=O)N2CC3CCC2[C@@H]3N)cc2nc(-c3cccn3C)n(CC3CN(c4ccnc(C#N)n4)C3)c12 (stereo partly drawn) [Example 318, 4-[3-({5-[(1R,4R,7R)-7-amino-2-azabicyclo[2.2.1]heptane-2-carbonyl]-7-methoxy-2-(1-methyl-1H-pyrrol-2-yl)-1H-1,3-benzodiazo1-1-yl)methyl)azetidin-1-yl]pyrimidine-2-carbonitrile]
1300 nM	CCc1ccccc1-c1nc2cc(C(=O)N3C[C@H]4CC[C@@H]3[C@@H]4N)cc(OC)c2n1CC1CN(c2ccnc(C#N)n2)C1 [Example 319, 4-[3-({5-[(1R,4R,7R)-7-amino-2-azabicyclo[2.2.1]heptane-2-carbonyl]-2-(2-ethylphenyl)-7-methoxy-1H-1,3-benzodiazol-1-yl}methyl)azetidin-1-yl]pyrimidine-2-carbonitrile]
2990 nM	CCc1ccccc1-c1nc2cc(C(=O)N3CC4CCC3[C@@H]4N)cc(OC)c2n1CC1CN(c2cncc(C)c2)C1 (stereo partly drawn) [Example 323, (1R,4R,7R)-2-[2-(2-ethytphenyl)-7-methoxy-1-{[1-(5-methylpyridin-3-yl)azetidin-3-yl]methyl}-1H-1,3-benzodiazole-5-carbonyl]-2-azabicyclo[2.2.1]heptan-7-amine]

Further lines, the molecule ahead of its results:

SMILES	IC50
COc1cc(C(=O)N2CCC[C@@H](N)C2)cc2nc(-c3cc4cccnc4n3CC3CC3)n([C@H]3C[C@H](N)C3)c12 [Example 300, (3R)-1-{2-[1-(cyclopropylmethyl)-1H-pyrrolo[2,3-b]pyridin-2-yl]-7-methoxy-1-[(1r,3r)-3-aminocyclobutyl]-1H-1,3-benzodiazole-5-carbonyl}piperidin-3-amine]	912 nM
COC(=O)N[C@H]1C[C@@H](n2c(-c3cc4cccnc4n3CC3CC3)nc3cc(C(=O)N4CC5CCC4[C@@H]5N)cc(OC)c32)C1 (stereo partly drawn) [Example 301, methyl N-[(1s,3s)-3-{5-[(1R,4R,7R)-7-amino-2-azabicyclo[2.2.1]heptane-2-carbonyl]-2-[1-(cyclopropylmethyl)-1H-pyrrolo[2,3-b]pyridin-2-yl]-7-methoxy-1H-1,3-benzodiazol-1-yl}cyclobutyl]carbamate]	1000 nM
COc1cc(C(=O)N2CCC[C@@H](N)C2)cc2nc(-c3cc4cccnc4n3CC3CC3)n([C@H]3C[C@@H](N)C3)c12 [Example 303, (3R)-1-{2-[1-(cyclopropylmethyl)-1H-pyrrolo[2,3-b]pyridin-2-yl]-7-methoxy-1-[(1s,3s)-3-aminocyclobutyl]-1H-1,3-benzodiazole-5-carbonyl}piperidin-3-amine]	1650 nM
COc1cc(C(=O)N2CCC[C@@H](N)C2)cc2nc(-c3cc4cccnc4n3CC3CC3)n(C3CNC3)c12 [Example 310, (3R)-1-[1-(azetidin-3-yl)-2-[1-(cyclopropylmethvl)-1H-pyrrolo[2,3-b]pyridin-2-yl]-7-methoxy-1H-1,3-benzodiazole-5-carbonyl]piperidin-3-amine]	1900 nM
COc1cc(C(=O)N2CC3CCC2[C@@H]3N)cc2nc(-c3cccn3CC3CC3)n(CC3CN(c4cncc(C#N)n4)C3)c12 (stereo partly drawn) [Example 313, 6-[3-({5-[(1R,4R,7R)-7-amino-2 azabicyclo[2.2.1]heptane-2-carbonyl]-2-[1-(cyclopropylmethyl)-1H-pyrro1-2-yl]-7-methoxy-1H-1,3-benzodiazol-1-yl}methyl)azetidin-1-yl]pyrazine-2-carbonitrile]	403 nM
COc1cc(C(=O)N2C[C@H]3CC[C@@H]2[C@@H]3N)cc2nc(-c3csc4ccc(Cl)cc34)n(CC3CN(c4ccnc(C#N)n4)C3)c12 [Example 315, 4-[3-({5-[(1R,4R,7R)-7-amino-2-azabicyclo[2.2.1]heptane-2-carbonyl]-2-(5-chloro-1-benzothiophen-3-yl)-7-methoxy-1H-1,3-benzodiazol-1-yl}methyl)azetidin-1-yl]pyrimidine-2-carbonitrile]	929 nM
COc1cc(C(=O)N2CC3CCC2[C@@H]3N)cc2nc(-c3csc4ccc(Cl)cc34)n(CC3CN(c4cncc(C#N)c4)C3)c12 (stereo partly drawn) [Example 316]	1150 nM
COc1cc(C(=O)N2CC3CCC2[C@@H]3N)cc2nc(-c3cccn3CC3CC3)n(CC3CN(c4cncc(C#N)c4)C3)c12 (stereo partly drawn) [Example 317]	1190 nM
COc1cc(C(=O)N2CC3CCC2[C@@H]3N)cc2nc(-c3csc4ccc(Cl)cc34)n(CC3CN(c4ccnc(C(N)=O)n4)C3)c12 (stereo partly drawn) [Example 320, 4-[3-({5-[(1R,4R,7R)-7-amino-2-azabicyclo[2.2.1]heptane-2-carbonyl]-2-(5-chloro-1-benzothiophen-3-yl)-7-methoxy-1H-1,3-benzodiazo1-1-yl}methyl)azetidin-1-yl]pyrimidine-2-carboxamide]	1350 nM
COc1cc(C(=O)N2CC3CCC2[C@@H]3N)cc2nc(-c3csc4ccc(Cl)cc34)n(CC3CN(C(=O)OCc4ccccc4)C3)c12 (stereo partly drawn) [Example 321, benzyl 3-({5-[(1R,4R,7R)-7-amino-2-azabicyclo[2.2.1]heptane-2-carbonyl]-2-(5-chloro-1-benzothiophen-3-yl)-7-methoxy-1H-1,3-benzodiazo1-1-yl}methyl)azetidine-l-carboxylate]	1530 nM
COc1cc(C(=O)N2CC3CCC2[C@@H]3N)cc2nc(-c3csc4ccc(Cl)cc34)n(CC3CN(c4cncc(C(N)=O)c4)C3)c12 (stereo partly drawn) [Example 322, 5[3-({5-[(1R,4R,7R)-7-amino-2-azabicyc1o[2.2.1]heptane-2-carbonyl]-2-(5-ch1oro-1-benzothiophen-3-yl)-7-methoxy-1H-1,3-benzodiazol-1-yl}methyl)azetidin-1-yl]pyridine-3-carboxamide]	2050 nM
